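The compound was tested at five concentrations on cells cultured in 96-well plates, with a 48-hour exposure period. GI50 is the concentration that inhibits growth by half. Definition used: TGI = concentration required for complete inhibition of growth.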
What was measured:
Test in all cases: inhibition of tumour cell growth, NCI panel, 48 h
[1] = test system: 786-0 renal
[2] = test system: ACHN renal
[3] = test system: EKVX NSCLC
[4] = test system: NCI/ADR-RES ovarian
[5] = test system: SK-MEL-28 melanoma
[6] = test system: SF-268 CNS
[7] = test system: MOLT-4 leukemia
[8] = test system: HS 578T breast
[9] = test system: T-47D breast
[10] = test system: SK-MEL-2 melanoma

O=C1OC(c2ccccc2)(c2cc(Br)c(O)c(Br)c2)c2ccccc21 (stereo not drawn)
GI50 [1]: 19.3 µM | TGI [1]: 38.7 µM | GI50 [2]: 34.5 µM | TGI [2]: > 100 µM | GI50 [3]: 31.7 µM | TGI [3]: > 100 µM | GI50 [4]: 26 µM | TGI [4]: 84.3 µM | GI50 [5]: 21.1 µM | TGI [5]: 49.2 µM | GI50 [6]: 28.8 µM | TGI [6]: > 100 µM | GI50 [7]: 30.4 µM | TGI [7]: > 100 µM | GI50 [8]: 18.5 µM | TGI [8]: 57.3 µM | GI50 [9]: 26.8 µM | TGI [9]: > 100 µM

COc1ccc2oc(C(=O)O)c3c2c1CCC3
TGI [1]: > 100 µM | TGI [2]: > 100 µM | TGI [3]: > 100 µM | TGI [5]: > 100 µM | TGI [7]: > 100 µM

CCS(=O)(=O)Nc1cccc(Nc2c3cccc(C)c3nc3c(C)cccc23)c1OC
GI50 [1]: 0.485 µM | TGI [1]: 10.4 µM | GI50 [2]: 0.326 µM | TGI [2]: 16.5 µM | GI50 [4]: 3.23 µM | TGI [4]: 60.2 µM | GI50 [5]: 4.29 µM | TGI [5]: > 100 µM | GI50 [6]: 0.98 µM | TGI [6]: > 56 µM | GI50 [7]: 0.166 µM | TGI [7]: 4.23 µM | GI50 [8]: 5.69 µM | TGI [8]: 44.8 µM | GI50 [10]: 10.5 µM | TGI [10]: 59.8 µM | GI50 [9]: 0.58 µM | TGI [9]: > 30.4 µM

O=C1c2ccccc2C(=O)N1C/C=C/CO
TGI [1]: > 100 µM | TGI [2]: > 100 µM | TGI [5]: > 100 µM | TGI [6]: > 100 µM | TGI [7]: > 100 µM | TGI [10]: > 100 µM

OC1C2CCC1C1C3C=CC(C3)C21 (stereo not drawn)
TGI [1]: > 100 µM | TGI [2]: > 100 µM | TGI [3]: > 100 µM | TGI [5]: > 100 µM | TGI [6]: > 100 µM | TGI [7]: > 100 µM | TGI [10]: > 100 µM

CCN(CC)CCCC(C)N=c1cc(Nc2cc(=NC(C)CCCN(CC)CC)c3cc(OC)ccc3o2)oc2ccc(OC)cc12 (stereo not drawn)
GI50 [1]: 2.26 µM | TGI [1]: 8.01 µM | GI50 [4]: 2.09 µM | TGI [4]: 15.3 µM | GI50 [5]: 0.838 µM | TGI [5]: 1.52 µM | GI50 [6]: 2.15 µM | TGI [6]: 8.72 µM | GI50 [7]: 0.725 µM | TGI [7]: 2.93 µM | GI50 [8]: 3.33 µM | TGI [8]: 14.8 µM | GI50 [10]: 1.35 µM | TGI [10]: 2.71 µM | GI50 [9]: 2.92 µM | TGI [9]: 13.2 µM

NCCN1C(=O)C2C3c4ccccc4C(c4ccccc43)C2C1=O (stereo not drawn)
TGI [1]: > 100 µM | TGI [2]: > 100 µM | TGI [3]: > 100 µM | TGI [5]: > 100 µM | TGI [6]: > 100 µM | TGI [7]: > 100 µM | TGI [10]: > 100 µM

O=C(NO)c1ccc(Cn2c(=O)n(-c3ccccc3F)c(=O)c3ccccc32)cc1
GI50 [1]: 1.82 µM | TGI [1]: 3.65 µM | GI50 [2]: 2.04 µM | TGI [2]: 5.59 µM | GI50 [4]: 2.54 µM | TGI [4]: 43 µM | GI50 [5]: 1.77 µM | TGI [5]: 4.25 µM | GI50 [6]: 1.74 µM | TGI [6]: 4.01 µM | GI50 [7]: 2.34 µM | TGI [7]: > 100 µM | GI50 [8]: 1.9 µM | TGI [8]: 11.9 µM | GI50 [10]: 1.29 µM | TGI [10]: 3.43 µM | GI50 [9]: 1.38 µM | TGI [9]: 5.92 µM

C[n+]1ccc(-c2c3nc(c(-c4cc[n+](C)cc4)c4ccc([n-]4)c(-c4cc[n+](C)cc4)c4nc(c(-c5cc[n+](C)cc5)c5ccc2[n-]5)C=C4)C=C3)cc1.[I-].[Zn+2]
GI50 [1]: 8.39 µM | TGI [1]: 28 µM | GI50 [2]: 15.5 µM | TGI [2]: 36.2 µM | GI50 [3]: 11.1 µM | TGI [3]: 47.6 µM | GI50 [5]: 5.54 µM | TGI [5]: 20 µM | GI50 [6]: 11 µM | TGI [6]: 25.9 µM | GI50 [7]: 28.4 µM | TGI [7]: > 100 µM | GI50 [10]: 19.1 µM | TGI [10]: 47.3 µM

CCOc1ccccc1NC(=O)CCc1n[nH]c(=S)o1
TGI [1]: > 100 µM | TGI [2]: > 100 µM | TGI [3]: > 100 µM | TGI [5]: > 100 µM | TGI [6]: > 100 µM | TGI [7]: > 100 µM | TGI [10]: > 100 µM

COc1cc2c(cc1OC)C(=O)Cc1ccc(OC)c(OC)c1CN(C)CC2
TGI [1]: > 100 µM | TGI [2]: > 100 µM | TGI [3]: > 100 µM | TGI [5]: > 100 µM | TGI [6]: > 100 µM | TGI [7]: > 100 µM | TGI [10]: > 100 µM

Reference: PubChem BioAssay (NCI)
